Results published in patent US7607596B1, “Process for enhancing the solubility of poorly soluble drugs” (Exxpharma, LLC, priority 2007, dated 2009).

Assay: dissolution rate of ketoprofen in 0.1 N HCl
Format: physicochemical
Conditions: granulated with microcrystalline cellulose

CC(C(=O)O)c1cccc(C(=O)c2ccccc2)c1 (centres unmarked) [ketoprofen, Ketoprofen]
dissolution rate of ketoprofen in 0.1N HCl (change after processing) (Example 1: ketoprofen ground/mixed with distilled water in TSGM, 200 rpm, 25° C., dried at 40° C.): increased two-fold
dissolution rate of ketoprofen in 0.1N HCl (change after processing) (Example 2: ketoprofen ground/mixed with 10% aqueous solution of Labrasol in TSGM): increased two-fold
dissolution rate of ketoprofen in 0.1N HCl (change after processing) (Example 3: ketoprofen ground/mixed with 10% aqueous solution of Tween 80 in TSGM): increased four-fold
dissolution rate of ketoprofen in 0.1N HCl (change after processing) (Example 4: ketoprofen ground/mixed with 10% aqueous solution of Capryol 90 in TSGM): increased two-fold
dissolution rate of ketoprofen in 0.1N HCl (change after processing) (Example 5: ketoprofen ground/mixed with 10% aqueous solution of polyvinylpyrrolidone in TSGM): increased three-fold
